From article PMC6943638, “Lectin PLL3, a Novel Monomeric Member of the Seven-Bladed β-Propeller Lectin Family” (Molecules, 2019)
Read-outs that look alike come from different tables or passages of the source.

How the values were obtained:
[1] = biological target: T1, PLL3 (Photorhabdus laumondii subsp. laumondii, UniProt Q7N8I7); assay: Hemagglutination inhibition assay (PLL3 with erythrocytes of blood group O); assay type: cell-based; settings: PLL3 50 μM; for inhibition of hemagglutination: blood group O erythrocytes, saccharide 100 to 0.1 mM; for minimal inhibitory concentration (MIC) of hemagglutination: erythrocytes of blood group O 10% (v/v)
T1 sequence (Q7N8I7 entry or part of it): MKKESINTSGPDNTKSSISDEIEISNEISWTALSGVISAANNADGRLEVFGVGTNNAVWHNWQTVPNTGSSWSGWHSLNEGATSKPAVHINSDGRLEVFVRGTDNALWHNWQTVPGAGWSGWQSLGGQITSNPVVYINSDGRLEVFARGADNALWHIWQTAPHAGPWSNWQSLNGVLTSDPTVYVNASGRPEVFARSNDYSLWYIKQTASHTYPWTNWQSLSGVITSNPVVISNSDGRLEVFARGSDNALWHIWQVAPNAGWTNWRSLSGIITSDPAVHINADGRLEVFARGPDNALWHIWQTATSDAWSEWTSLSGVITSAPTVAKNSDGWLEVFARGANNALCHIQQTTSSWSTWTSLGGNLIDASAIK
Method: For the hemagglutination inhibition assay, the PLL3 was mixed with serially diluted saccharides (L-fucose, αMeFuc, D-galactose, D-glucose, and 3-O-methyl-D-glucose) dissolved in PBS buffer, and mixtures were incubated for 15 min at room temperature. Subsequently, erythrocytes of blood group O were added into the mixture with following incubation for 15 min. The final concentration was 50 μM for the PLL3 and 10% (v/v) for erythrocytes. Concentrations of L-fucose and αMeFuc ranged from 50 to 0.05 mM. Concentrations of D-galactose, D-glucose, and 3-O-methyl-D-glucose ranged from 100 to 0.1 mM. Each sample was observed under the optical microscope (Olympus IX81 with camera DP72; 200x magnification; SW CellSens Dimension, Olympus corporation, Tokyo, Japan).

[2] = biological target: T1, PLL3; assay: Isothermal titration calorimetry (ITC); assay type: binding
Method: ITC experiments were carried out using an AutoITC200 calorimeter (Malvern, UK) at 25 °C. The purified lectin was dialyzed against 20 mM Tris/HCl, 150 mM NaCl, pH 7.5 buffer before measurements. Individual ligands (L-fucose, αMeFuc, D-galactose, D-glucose, 3-O-methyl-D-glucose, and decavalent fucosylated glycoclusters 4a and 4b) were dissolved in the same buffer. PLL3 (100 μM) in the cell was titrated by the successive addition (2.0 μL) of the ligand in the syringe (20 mM for monosaccharides, 1 mM for multivalent fucosides). Experiments with monosaccharides were performed at stirring 750 rpm with a reference power of 10 μcal s^−1. Experiments with multivalent fucosides were performed at stirring 500 rpm with a reference power of 6 μcal s^−1. Titrations were carried out in three independent measurements for each ligand. Blank measurements were subtracted from collected data. For multivalent fucosides, two blank measurements were performed: titration of the buffer into the cell with PLL3 and titration of the buffer into the buffer. For monosaccharides, the additional blank measurement, the titration of a given ligand into the cell with buffer, was performed. The data were evaluated in software MicroCal PEAQ-ITC Analysis Software (Malvern, UK) by using the global fit method. Integrated heat effects were analyzed by nonlinear regression.

[3] = biological target: T1, PLL3; assay: SPR inhibition test on immobilized OMeDis; assay type: binding
Method: (§1) SPR experiments were performed in a BIAcore T200 instrument (GE Healthcare, UK) using a four-channel sensor chip CM5 with a carboxymethyldextran surface layer (GE Healthcare, UK). Saccharides were immobilized on the chip surface using the procedure as described elsewhere. Immobilization was performed in the HBS buffer (10 mM HEPES, 150 mM NaCl, 0.05% Tween 20, pH 7.5) at a flow rate of 10 μL min^−1. For OMeDis immobilization, the surface of the channel was activated with N-hydroxysuccinimide/N-ethyl-N-(3-dimethylaminopropyl)carbodiimide solution (NHS/EDC) and subsequently OMeDis covalently modified by linker (-O-(p-C6H4)-OCH2CH2NH2) in HBS was injected. The final response of immobilized OMeDis was 136 RU. Non-reacted groups were blocked by 1 M ethanolamine/HCl (pH 8.5). A corresponding blank channel was prepared the same way, omitting the ligand injection. […] Biotinylated α-L-fucoside was injected onto this channel to the final response of 63 RU. A corresponding blank channel was prepared the same way without the injection of biotinylated fucoside.
SPR inhibition tests were carried out on a channel with immobilized OMeDis using the same buffer and flow rate values as those for the binding studies. The final concentration of the lectin was 20 μM. PLL3 was mixed with serially diluted saccharides (50–0.05 mM for L-fucose; 12.5–0.013 mM for αMeFuc; 200–0.2 mM for 3-O-methyl-D-glucose; and 400–0.4 mM for D-glucose and D-galactose) and injected onto the chip. The lectin sample without ligand was used as a control with 0% inhibition effect. The response of blank channel as well as the response of corresponding saccharides were subtracted from the response of lectin bound to the OMeDis surface at equilibrium. A final response was plotted against the concentration of inhibitor in order to determine IC50 (concentration of inhibitor resulting in 50% inhibition of binding).

[4] = biological target: T1, PLL3; assay: Surface plasmon resonance, apparent KD on immobilized glycans; assay type: binding; settings: SPR, immobilized glycan, PLL3 100 to 0.195 μM, steady-state
Method: as §1
(§2) Between individual injections, the channels were regenerated by 50 mM NaOH for 30 s. The experiment was run at a flow rate of 30 μL min^−1 and a contact time of 120 s. The concentration of PLL3 ranged from 100 μM to 0.195 μM. An apparent KD was calculated in BIAevaluation software using the steady-state approach.

[5] = tested on: PLL3; assay: as above; assay type: binding, Photorhabdus laumondii subsp. laumondii; settings: PLL3 compared with PLL2 and PHL of ref 17
Method: as §1, §2

[6] = biological target: T1, PLL3; assay: Glycan array screening with DyLight 488-labeled PLL3; assay type: binding; settings: PLL3 200 μg mL^-1, hexaplicates
Excerpt: Purified PLL3 protein was labeled with DyLight 488 NHS Ester (Thermo Scientific, Rockford, MI, USA) according to the manual instructions of the manufacturer. The unbound dye was removed from the solution using the Zeba Spin Desalting Column (Thermo scientific). The labeled lectin was used for glycan array screening using a glycan microarray chip (Semiotik, Moscow, Russia; chip format OSPS280715; slide number 10085636) containing over 600 mammalian and bacterial glycans (all in hexaplicates). The glycan microarray chip was incubated in 1.0 mL of PBS buffer supplemented with 0.1% (v/v) Tween 20 and placed in a humid chamber for 15 min (37 °C, 40 rpm). Then, the buffer was replaced by 0.5 mL PLL3 (200 μg mL^−1) diluted in PBS buffer with 0.1% Tween 20 and 1% (w/v) bovine serum albumin (Serva, Germany). After incubation (90 min, 37 °C, 40 rpm), the chip was washed by decreasing concentrations of PBS with 0.1% Tween 20, followed by multiple immersions in ultrapure water. Subsequently, the chip was dried by air blow. Fluorescence was read with a scanner InnoScan 1100 AL (Innopsys, Carbonne, France) with a 488 nm laser at 20 °C. The data were analyzed with the software Mapix 8.2.2 and an online glycan chip converter (Semiotik, https://rakitko.shinyapps.io/semiotik). The relative fluorescent response of PLL3 binding was calculated from hexaplicates of each glycan immobilized onto the chip. Only glycans with a response three or more times higher than trehalose and concurrently with a signal-to-noise ratio higher than two were considered as significant binders.

[7] = stoichiometry fixed to 3, 25 °C, read-out: KD
[8] = stoichiometry fixed to 4, 25 °C, read-out: KD
[9] = stoichiometry fixed to 5, 25 °C, read-out: KD
[10] = stoichiometry fixed to 6, 25 °C, read-out: KD
[11] = stoichiometry fixed to 7, 25 °C, read-out: KD

| Compound | inhibition of hemagglutination [1] | Kd [2, 7] [mM] | Kd [2, 8] [mM] | Kd [2, 9] [mM] | Kd [2, 10] [mM] | Kd [2, 11] [mM] | inhibitory effect ([3]; PLL3 20 μM, immobilized OMeDis, highest concentration used 400 mM) | Kd [4] [mM] | interaction with immobilized OMeDis, fold weaker than for PLL2 and PHL [5] | glycan array response relative to trehalose (negative control) [6] [fold] | minimal inhibitory concentration (MIC) of hemagglutination [1] [µM] | IC50 ([3]; inhibition of interaction between PLL3 (20 μM) and immobilized OMeDis, read-out: IC50) [mM] | Kd ([2]; text summary over stoichiometry fixed 3 to 7, read-out: KD values) [mM] | IC50 [3] [mM] |
| --- | --- | --- | --- | --- | --- | --- | --- | --- | --- | --- | --- | --- | --- | --- |
| OC[C@H]1OC(O)[C@H](O)[C@@H](O)[C@@H]1O (stereo partly drawn) [D-glucose] | did not inhibit hemagglutination | 3.7 ± 0.08 | 3.6 ± 0.08 | 3.4 ± 0.08 | 3.3 ± 0.07 | 3.1 ± 0.07 | did not exhibit any inhibitory effect | – | – | – | – | – | – | – |
| 3,6-O-Me2-Glcβ1-4(2,3-O-Me2)Rhaα [OMeDis] | – | – | – | – | – | – | – | 0.607 ± 0.046 | 10^5 fold | – | – | – | – | – |
| α-L-fucoside | – | – | – | – | – | – | – | 0.322 ± 0.086 | – | ~20 | – | – | – | – |
| CO[C@@H]1O[C@@H](C)[C@@H](O)[C@@H](O)[C@@H]1O [methyl α-L-fucopyranoside] | – | 0.7 ± 0.02 | 0.7 ± 0.03 | 0.6 ± 0.03 | 0.6 ± 0.03 | 0.6 ± 0.03 | – | – | – | – | 780 | 1.04 ± 0.05 | – | – |
| CO[C@@H]([C@H](O)[C@H](O)CO)[C@@H](O)C=O [3-O-methyl-D-glucose] | did not inhibit hemagglutination | 11.3 ± 1.55 | 11.1 ± 1.5 | 10.9 ± 1.5 | 10.7 ± 1.5 | 10.4 ± 1.45 | – | – | – | – | – | – | > 10.4 | 26.4 ± 2.84 |
| C[C@H](O)[C@@H](O)[C@@H](O)[C@H](O)C=O [L-fucose] | – | 3.4 ± 0.12 | 3.3 ± 0.12 | 3.2 ± 0.11 | 3.1 ± 0.1 | 3 ± 0.09 | – | – | – | – | 1560 | – | – | 2.51 ± 0.09 |
